Measured values: US8802161B2, “Herbal composition and method of use for the treatment of cancer” (Florida Agricultural and Mechanical University, priority 2003, dated 2014)
Where two headings read alike, the source gives them in different places.

How the values were obtained:
LDH Type V = biological target: T1, LDH Type V (Oryctolagus cuniculus, UniProt P13491); experiment: LDH enzyme kinetic activity (NADH oxidation); assay type: biochemical, rabbit
T1 construct: were determined in pure isolated enzyme preparations; from tissue; host or cells: rabbit muscle
Description: FIG. 2—The toxicity of selected plant extracts and 2′,3,4′5,7-pentahydroxyflavone were previously determined on N-2A neuroblastoma cells prior to examination of their effects on kinetic activity of pyruvate kinase (PK) and LDH (data not shown). Briefly, the effects of experimental compounds on PK and LDH Type V, resembling that inherent to human cancer (Koukourakis et al., Br J Cancer. 2003; 89:877-85; Augoff and Grabowski. Pol Merkuriusz Lek 2004; 17:644-7; Nagai et al., Int J Cancer. 198815; 10-6; Evans et al., Biol. Chem. 1985; 260:306-14) were determined in pure isolated enzyme preparations. Briefly, PK Type III (from rabbit muscle [2.7.1.40]) was prepared in distilled water+HEPES (pH 7.5), at a concentration of 0.5 enzyme U/ml. Pyruvic acid was converted to lactate in the presence of LDH (from rabbit muscle, type V-S [EC 1.1.1.27]), at a concentration of 10 U/ml in the presence of adenosine, 2′,5′-diphospahte (ADP) (1.5 mM), β-NADH (1 mM)±magnesium sulfate (MgSO4) (5 mM). Experimental compounds were incubated with the enzyme solution for 10 minutes and addition of 1 mM phosphoenolpyruvate (PEP) prepared in distilled water started the reaction. Negative controls were established for all compounds tested. Enzyme activities were determined by spectrophotometric analysis using a UV spectrometer at 340 nm, by monitoring the oxidation of NADH. Experimental compounds that blocked the reaction through the PK/LDH cascade, were re-analyzed for LDH inhibition. LDH activity was achieved using an enzyme reaction mixture, minus PK or PEP, and starting the reaction with pyruvate (1 mM) prepared in buffered distilled water. Validation studies for LDH kinetic activity were established by monitoring the oxidation of NADH over time and concentration with dual detection quantifying lactic acid using a lactate oxidase based colorimetric enzymatic assay (Procedure No 735, Sigma Diagnostics, St. Louis, Mo.). FIG. 2A describes the effect of tumoricidal plant extracts and 2′,3,4′5,7-pentahydroxyflavone on inhibition of PK/LDH activity. The data represent reaction rate of NADH oxidation in the presence of enzyme/cofactor reagents+PEP (1 mM)±varying concentration of experimental compounds at 30 Min. […] Significance of difference from the controls were determined by a one-way ANOVA, followed by a Tukey mean comparison post hoc test, [*] group P<0.001,*P<0.001. FIG. 2B describes the effect of tumoricidal plant-extracts and 2′,3,4′5,7-pentahydroxyflavone on inhibition of LDH activity. The data represent reaction rate of NADH oxidation in the presence of enzyme/cofactor reagents+pyruvate (1 mM)±single level of experimental compound over time. […] Significance of difference from the control was determined by a two-way ANOVA, [*] P<0.001.

complex IV = experiment: mitochondrial respiration / O2 utilization through complex IV in cancer cells; assay type: cell-based
cancer cells = experiment: lethality to cancer cells; assay type: cell-based
mitochondrial complex II = experiment: kinetic activity of mitochondrial complex II in cancer cells; assay type: biochemical
[1] = tested on: neuroblastoma and MCF-7 cell line; experiment: toxicity of 3-BP versus 2,3-DMBQ: growth inhibition of MCF-7 cells and cell viability of N2A cells; assay type: cell-based; settings: 24 hour incubation (FIGS. 3A,B)
Procedure: Briefly, cells were grown in Eagles MEM medium with […] and 10% calf serum and plated at 5′ 104 cells in 24 well plates. Appropriate positive (tamoxifen) and negative (no drug) controls were maintained simultaneously. After 24 hour incubation, cells were trypsined and collected by centrifugation, re-suspended in fresh media and cells were counted using trypan blue dye on a hemocytometer. […] FIG. 3B represents the evaluation of 3-BP versus 2,3-DMBQ on cell viability in N2A neuroblastoma cell line. Briefly, the experimental media consisted of DMEM (without phenol red), supplemented with 1.8% FBS (v/v), penicillin (100 U/ml)/streptomycin (0.1 mg/ml), 4 mM L-glutamine and 2 μM sodium pyruvate. Cells were plated at approximately 0.5×10^6 cells/ml in 96 well plates. A stock solution of each experimental compound was prepared in HBSS containing 5 mM HEPES, adjusted to a pH of 7.4. After 24 hours incubation at 37° C. and 5% CO2/atmosphere almar blue indicator dye was used to assess cell viability. Quantitative analysis of dye conversion was measured on a microplate fluorometer—Model 7620-version 5.02, Cambridge Technologies Inc. with settings fixed at [550/580], [excitation/emission], wavelengths. […]

[2] = tested on: mitochondrial complex's I and IV; experiment: Vmax and Km of mitochondrial complexes I and IV; assay type: biochemical
N-2A neuroblastoma cells = experiment: in vitro screening of >700 nutraceuticals for tumoricidal properties (loss of cell viability, 24 H); assay type: cell-based; settings: 24 H incubation at 37° C.
Procedure: In brief, we conducted a large scale screening of over 700 commonly sold nutritional supplements for relative tumoricidal properties in vitro.
The data represent loss of cell viability after 24 H incubation at 37° C., and represent the Mean±S.E.M. . . . n=4

[3] = tested on: MD-MB-231 human mammary carcinoma; experiment: efficacy against MD-MB-231 human mammary carcinoma xenograft; assay type: in vivo, Nu/Nu nude mice; settings: in comparison to a vehicle control; formulation i.p./s.c., taxol i.v.
Procedure: Briefly, 6 week old female Nu/Nu mice were kept in an autoclaved micro isolator cage, maintained under pathogen free conditions. The tumors were ascetically surgically removed and transferred to a sterile Petri dish containing RPMI-1640. The homogenate was centrifuged, pelleted, resuspended into a concentration of 10 million cells/ml and injected into the mammary fat pad. The tumors were established by day 9 after implant and treatment began. The formula was prepared in sterile saline, and administered by i.p. injection for 3 days and s.c for the next 3 days, stopping at day 15. Taxol—(24 mg/kg in 2% PEG 300, 8% cremophor CL an 80% sterile Saline) was administered i.v. intermittently up to day 19 (days 10,13,16 and 19). […] The data represents tumor volume estimation (mm3) and expressed as the mean±S.E.M., n=4, for treatment groups, with n=1 for the control. […] The data represents weight gain (g) and are expressed as the mean±S.E.M., n=4, for treatment groups, with n=1 for the control.

O=c1c(O)c(-c2ccc(O)cc2O)oc2cc(O)cc(O)c12 [2′,3,4′5,7-pentahydroxyflavone]
LDH inhibition (LDH enzyme kinetic profiles) (LDH Type V): inhibitor

COC1=C(OC)C(=O)C(C/C=C(\C)CC/C=C(\C)CC/C=C(\C)CC/C=C(\C)CC/C=C(\C)CC/C=C(\C)CC/C=C(\C)CC/C=C(\C)CC/C=C(\C)CCC=C(C)C)=C(C)C1=O [CoQ10, ubiquinone (50)]
rate of mitochondrial respiration or O2 utilization through complex IV (complex IV): did not control
rate of mitochondrial respiration or O2 utilization through complex IV (complex IV; listed as ubiquinone (50)): no positive effect
lethality to cancer cells (cancer cells): not as lethal as expected
Vmax / kinetic activity of mitochondrial complex II (mitochondrial complex II): increase
Vmax / kinetic activity of mitochondrial complex II (mitochondrial complex II; listed as ubiquinone (50)): augmenting

COC1=C(OC)C(=O)C(C)=CC1=O [DMBQ]
toxicity relative to bromopyruvate [1]: > 50 ×
lethality to cancer cells (cancer cells): lethal

Cc1cc2nc3c(=O)[nH]c(=O)nc-3n(C[C@H](O)[C@H](O)[C@H](O)COP(=O)(O)OP(=O)(O)OC[C@H]3O[C@@H](n4cnc5c(N)ncnc54)[C@H](O)[C@@H]3O)c2cc1C [FAD, flavin adenine dinucleotide]
Vmax and Km of mitochondrial complex's I and IV [2]: augmenting the Vmax and reduction of Km

Cc1cc2nc3c(=O)[nH]c(=O)nc-3n(C[C@H](O)[C@H](O)[C@H](O)COP(=O)(O)O)c2cc1C [FMN, flavin mononucleotide]
Vmax and Km of mitochondrial complex's I and IV [2]: augmenting the Vmax and reduction of Km

C[C@H]1[C@H](C)CC[C@]2(C)CC[C@]3(C)C(=CC[C@@H]4[C@@]5(C)CC[C@@H](O)[C@](C)(C(=O)O)[C@@H]5CC[C@]43C)[C@H]12 [boswellic acid]
tumoricidal potency (loss of cell viability) (N-2A neuroblastoma cells): most potent tumoricidal

O=C(O)CC(O)(CC(=O)O)C(=O)O [citric acid]
LDH inhibition (LDH enzyme kinetic profiles) (LDH Type V): LDH inhibitors

COc1ccc(-c2cc(=O)c3c(O)cc(O[C@@H]4O[C@H](CO[C@@H]5O[C@@H](C)[C@H](O)[C@@H](O)[C@H]5O)[C@@H](O)[C@H](O)[C@H]4O)cc3o2)cc1O [diosmin]
tumoricidal potency (loss of cell viability) (N-2A neuroblastoma cells): most potent tumoricidal

O=C(O[C@@H]1Cc2c(O)cc(O)cc2O[C@@H]1c1cc(O)c(O)c(O)c1)c1cc(O)c(O)c(O)c1 [epigallocatechin gallate]
LDH inhibition (LDH enzyme kinetic profiles) (LDH Type V): LDH inhibitors

CC(C)=CCC[C@]1(C)C=Cc2c(O)c3c(c(CC=C(C)C)c2O1)O[C@]12C(=C[C@@H]4C[C@H]1C(C)(C)O[C@@]2(C/C=C(/C)C(=O)O)C4=O)C3=O [gambogic acid]
tumoricidal potency (loss of cell viability) (N-2A neuroblastoma cells): most potent tumoricidal

O=c1c(O)c(-c2ccc(O)c(O)c2)oc2cc(O)cc(O)c12 [quercetin]
LDH inhibition (LDH enzyme kinetic profiles) (LDH Type V): LDH inhibitors

CC(=O)O[C@H]1C(=O)[C@@]2(C)[C@H]([C@H](OC(=O)c3ccccc3)[C@]3(O)C[C@H](OC(=O)[C@H](O)[C@@H](NC(=O)c4ccccc4)c4ccccc4)C(C)=C1C3(C)C)[C@]1(OC(C)=O)CO[C@@H]1C[C@@H]2O [taxol®]
tumor growth and growth latency [3]: reduced tumor growth and growth latency

Cc1cc2nc3c(=O)[nH]c(=O)nc-3n(C[C@H](O)[C@H](O)[C@H](O)CO)c2cc1C [vitamin B2, 7,8-dimethyl-10-ribityl-isoalloxazine]
rate of mitochondrial respiration or O2 utilization through complex IV (complex IV): drastically potentiates
Vmax and Km of mitochondrial complex's I and IV [2]: augmenting the Vmax and reduction of Km
